# Experimental data: patent publication US9586995B2, “Compositions and methods of use for (pro)renin receptor” (University of Utah, priority 2012, dated 2017)
# Columns and labels:
# renal medullary PRR = renal medullary PRR (Rattus norvegicus, UniProt Q6AXS4); test: AngII-induced hypertension in uninephrectomized SD rats, telemetry MAP; type: in vivo; conditions: AngII 100 ng/kg/min s.c. alone or with intramedullary PRO20 120 μg/kg/d; day 0 MAP 108+5.8
# Procedure: FIGS. 26A, 26B, 26C, 26D, and 26E show the characterization of PRO20 and examination of its effect on AngII-induced hypertension. Comparison of PRO20 (B and D) and the HRP (A and C) in inhibiting prorenin-induced signaling. Primary rat IMCD cells were pretreated for 1 h with PRO20 (1.5 μM) or the HRP (2.0 μM) and then were exposed to 100 nM prorenin for 10 min. ERK1/2 phosphorylation was determined by immunoblotting. (E) Effect of intramedullary delivery of PRO20 on AngII-induced hypertension. Uninephrectomized SD rats were divided into the following three groups: (1) AngII, (2) AngII+IM PRO (intramedullary PRO20 infusion), and (3) AngII+IV PRO20 (intravenous PRO20 infusion). AngII was subcutaneously infused at 100 ng/kg/min via an osmotic mini-pump. IM PRO (PRO20 at 120 μg/kg/d) was performed via a catheter chronically implanted in the renal medulla. To control the spillover, IV PRO (PRO20 at 120 μg/kg/d) was performed via catheterization of jugular vein. Telemetry was performed to monitor mean arterial pressure (MAP) and it was turned on 4 h per day from 5:00 PM to 9:00 PM for 7 days. #p<0.01 vs. intravenous PRO20; *, p<0.05 vs. AngII alone. N=3-6 per group. Data are mean+SE. […]
# α-ENaC = test: Renal ENaC expression in AngII-infused rats (immunoblotting, qRT-PCR); type: in vivo, rat; conditions: following AngII infusion
# Procedure: FIGS. 28A, 28B, 28C, 28D, 28E, 28F, 28G and 28H show the effect of IMPRO on renal inner medullary ENaC expression during AngThinduced hypertension. The expression of the three subunits of ENaC (α-, β-, and γ-) in the inner medulla of control, AngII and AngII+IM RPO rats was determined by immunobotting (A-E) and qRT-PCR (F-H). N=6 per group. Data are mean+SE.
# Renal tissues were lysed and subsequently sonicated in PBS that contained 1% Triton x-100, 250 μM phenylmethanesulfonyl fluoride (PMSF), 2 mM EDTA, and 5 mM dithiothrietol (DTT) (pH 7.5). Protein concentrations were determined by the use of Coomassie reagent. […] of protein for each sample was denatured in boiling water for 10 min, then separated by SDS-PAGE, and transferred onto nitrocellulose membranes. The blots were blocked 1 h with 5% nonfat dry milk in Tris-buffered saline (TBS), followed by incubation for overnight with primary antibody. […] The blots were quantitated by using Imagepro-plus. […]
# Epithelial sodium channel (ENaC) is the major sodium channel on the apical membrane of the CD Immunoblotting and qRT-PCR analysis of renal ENaC expression was performed. […] In contrast, α-ENaC protein abundance in the cortex was unaffected. qRT-PCR detected 1.6-fold increase of α-ENaC mRNA expression in the inner medulla, which was abolished by IM PRO (FIG. 28F). […]
# [1] = Plasma and urinary aldosterone in AngII-infused rats; type: in vivo, rat; conditions: following AngII infusion
# Procedure: FIGS. 31A, B, and C show the role of PRR in AngII-induced aldosterone production in vivo and in vitro. Plasma aldosterone concentrations (A) and urinary aldosterone excretion (B) were determined in control, AngII, AngII+IM PRO20, and AngII+IV PRO20 rats. The direct action of PRO20 in aldosterone regulation was tested in primary culture of rat IMCD cells (C). For the in vitro study, the cells were exposed to vehicle, AngII, or AngII+PRO20 and the medium were assayed for aldosterone release. N=3-6 per group. Data are means±SE.
# Under anesthesia, blood was collected puncturing vena cava, and plasma was recovered by centrifugation. At the end of experiments, animals were placed in metabolic cages for urine collections. The renal inner medulla was homogenized in 2.6 mM EDTA, 3.4 mM hydroxyquinoline, 5 mM ammonium acetate, 200 μM PMSF, and 0.256 μM dimercaprol. […] Renin activity in urine, tissue homogenates, and cell culture medium was determined by measurement of AngI generation using an ELISA kit and it was performed in the native condition, active renin content with excessive angiotensinogen, and total renin content with excessive angiotensinogen plus trypsinization as previously described. Aldosterone concentrations in plasma, urine, and cell culture medium were measured using a commercial ELISA kit (Cat#:10004377, Cayman Chemical). […]
# renal medullary PRR, sequence (Q6AXS4 18-350): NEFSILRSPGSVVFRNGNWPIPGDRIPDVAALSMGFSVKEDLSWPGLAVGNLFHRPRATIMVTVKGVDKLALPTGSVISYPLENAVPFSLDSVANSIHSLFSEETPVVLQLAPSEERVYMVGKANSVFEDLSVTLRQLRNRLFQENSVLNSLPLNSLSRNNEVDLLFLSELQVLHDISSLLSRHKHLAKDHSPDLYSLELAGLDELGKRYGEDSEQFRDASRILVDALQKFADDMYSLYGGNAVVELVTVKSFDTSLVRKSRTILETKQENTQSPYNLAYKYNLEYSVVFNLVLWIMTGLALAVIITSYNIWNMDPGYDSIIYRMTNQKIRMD
substance,measurement,setting,value
"Angiotensin II (DRVYIHPF; Angiotensin-2; UniProt P01019 25-32, looked up) [AngII]",MAP on day 7,renal medullary PRR,164.7+6.2 mmHg
same,increase in renal medullary α-ENaC protein abundance,α-ENaC; immunoblotting,2.2 fold
same,increase of α-ENaC mRNA expression in the inner medulla,α-ENaC; qRT-PCR,1.6 fold
same,increase in aldosterone levels in the plasma,[1],60%
same,increase in aldosterone levels in the urine,[1],3.2 fold
